According to the supplement of paper PMC10307832:

What was measured:
Assay in all cases: relative viability (nuclei count vs DMSO), 5 days (fraction); higher = more cells survive
[1] = compound: CC1=NN=C(O1)C2=NN=C(C=C2)N3CCC(CC3)OC4=C(C=CC(=C4)F)Cl + Cc1nc(Nc2ncc(C(=O)Nc3c(C)cccc3Cl)s2)cc(N2CCN(CCO)CC2)n1 [Dasatinib] (partner 0.075 µM)
Summary of the method: (§1)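 Lung cancer cell lines in 1536-well plates were dosed by pin tool the day after seeding, either with one drug alone or with a fixed anchor-drug dose plus five library-drug doses (not always all listed) in √10 steps. After 5 days, cells were fixed and their nuclei stained in one step (final 0.05% Triton X-100, 1% formaldehyde, 1 ug/ml Hoechst), then counted on 4× images. Relative viability is the nuclei count in treated wells divided by that in vehicle wells. Values are medians of duplicate plates.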

[2] = compound: CC1=NN=C(O1)C2=NN=C(C=C2)N3CCC(CC3)OC4=C(C=CC(=C4)F)Cl + CC1(C)CCC(c2ccc(Cl)cc2)=C(CN2CCN(c3ccc(C(=O)NS(=O)(=O)c4ccc(N[C@H](CCN5CCOCC5)CSc5ccccc5)c(S(=O)(=O)C(F)(F)F)c4)cc3)CC2)C1 [Navitoclax] (partner 0.5 µM)
Summary of the method: as §1

Tosedostat + Crizotinib = compound: CC(C)C[C@@H](C(=O)N[C@H](C(=O)OC1CCCC1)c1ccccc1)[C@H](O)C(=O)NO [Tosedostat] + C[C@@H](Oc1cc(-c2cnn(C3CCNCC3)c2)cnc1N)c1c(Cl)ccc(F)c1Cl [Crizotinib] (partner 1 µM)
Summary of the method: as §1

[3] = compound: CC1=NN=C(O1)C2=NN=C(C=C2)N3CCC(CC3)OC4=C(C=CC(=C4)F)Cl + CCNC(=O)c1noc(-c2cc(C(C)C)c(O)cc2O)c1-c1ccc(CN2CCOCC2)cc1 [Luminespib] (partner 0.01 µM)
Summary of the method: as §1

Cell Line	relative viability ([1]; first compound 0.253 µM)	relative viability ([1]; first compound 0.8 µM)	relative viability ([1]; first compound 2.53 µM)	relative viability ([1]; first compound 8 µM)	relative viability ([2]; first compound 0.253 µM)	relative viability ([2]; first compound 0.8 µM)	relative viability ([2]; first compound 2.53 µM)	relative viability ([2]; first compound 8 µM)	relative viability (Tosedostat + Crizotinib; first compound 0.02 µM)	relative viability (Tosedostat + Crizotinib; first compound 0.06325 µM)	relative viability (Tosedostat + Crizotinib; first compound 0.2 µM)	relative viability (Tosedostat + Crizotinib; first compound 0.6325 µM)	relative viability (Tosedostat + Crizotinib; first compound 2 µM)	relative viability ([3]; first compound 0.253 µM)	relative viability ([3]; first compound 0.8 µM)	relative viability ([3]; first compound 2.53 µM)	relative viability ([3]; first compound 8 µM)
201T	0.38	0.45	0.409	0.433	0.542	0.627	0.53	0.529	1.04	1.05	1.08	1.11	1.09	0.486	0.589	0.499	0.566
A549					0.778	0.652	0.599	0.587	0.869	0.726	0.702	0.652	0.683				
A-427	0.654		0.669	0.63	0.86		0.771	0.631	0.972	0.847	0.87	0.916	0.895	0.882		0.708	0.732
ABC-1	0.457	0.32	0.318	0.361					1.15	0.868	1.02	0.83	0.631	0.35	0.362	0.207	0.262
BEN	0.375	0.508	0.321	0.24	0.0638	0.0498	0.058	0.141	0.894	0.875	0.818	1.02	0.956	0.47	0.459	0.312	0.18
CAL-12T	0.315	0.34	0.374	0.228	1	1.09	0.834	1	0.702	0.594	0.727	0.533	0.661	0.362	0.342	0.501	0.415
COR-L23	0.438	0.375	0.39	0.343	0.815	0.729	0.789	0.629	0.86	0.554	0.642	0.604	0.524	0.587	0.647	0.458	0.474
COR-L 105	0.329	0.346	0.413	0.489	0.686	0.846	0.622	0.727	0.865	0.751	0.827	0.493	0.548	0.622	0.812	0.691	0.625
Calu-6					0.667	0.673	0.651	0.612	0.924	0.755	0.762	0.682	0.415				
ChaGo-K-1	0.604	0.531	0.654	0.352	0.678	0.624	0.632	0.622	1.05	1.03	1.14	1.01	0.84	0.426	0.532	0.56	0.541
EBC-1					0.352	0.375	0.26	0.276	0.197	0.185	0.197	0.179	0.153				
EKVX	0.513	0.464	0.436	0.532	0.451	0.368	0.429	0.423	0.763	0.842	0.921	0.807	0.789	0.447	0.362	0.331	0.32
EMC-BAC-2	0.319	0.324	0.362	0.422	0.998	0.909	1.03	0.936	0.847	0.724	0.742	0.703	0.536	0.987	0.977	1.03	0.917
EPLC-272H	0.35	0.277	0.404	0.302	0.935		1.11	1.01	0.915	0.877	0.635	0.613	0.25	0.226	0.167	0.313	0.267
H3255	0.316	0.434	0.404	0.338	0.494	0.422	0.524	0.39	0.976	0.846	0.812	0.669	0.827	0.82	0.737	0.727	0.66
HARA	0.271	0.248	0.247	0.235	0.451	0.392	0.393	0.352	1.12	0.912	0.991	0.997	1.14	0.234	0.204	0.202	0.184
HCC-15	0.497	0.453	0.499	0.472	0.477	0.445	0.455	0.491	0.939	0.836	0.834	0.777	0.635	0.342	0.303	0.294	0.286
HCC-44					0.424	0.476	0.477	0.447	0.861	0.755	0.759	0.741	0.492	0.739	0.812	0.725	0.731
HCC-78	0.413	0.302	0.341	0.244	0.436	0.43	0.544	0.525	0.298	0.337	0.324	0.371	0.391				
HCC-366	0.292	0.375	0.471	0.361	0.445	0.387	0.423	0.364	0.681	0.532	0.432	0.465	0.325				
HCC-827	0.374	0.235	0.357	0.256	0.397	0.291	0.399	0.328	0.954	0.933	0.977	0.888	0.756	0.428	0.228	0.349	0.339
HOP-62	0.571	0.633	0.606	0.6	0.834	0.542	0.816	0.863	1.01	0.994	0.677	0.81	0.69	0.63	0.638	0.697	0.634
IA-LM					0.131	0.137	0.127	0.12	0.937	0.879	0.776	0.692	0.602				

Cell Line	relative viability ([1]; first compound 0.253 µM)	relative viability ([1]; first compound 0.8 µM)	relative viability ([1]; first compound 2.53 µM)	relative viability ([1]; first compound 8 µM)	relative viability ([2]; first compound 0.253 µM)	relative viability ([2]; first compound 0.8 µM)	relative viability ([2]; first compound 2.53 µM)	relative viability ([2]; first compound 8 µM)	relative viability (Tosedostat + Crizotinib; first compound 0.02 µM)	relative viability (Tosedostat + Crizotinib; first compound 0.06325 µM)	relative viability (Tosedostat + Crizotinib; first compound 0.2 µM)	relative viability (Tosedostat + Crizotinib; first compound 0.6325 µM)	relative viability (Tosedostat + Crizotinib; first compound 2 µM)	relative viability ([3]; first compound 0.253 µM)	relative viability ([3]; first compound 0.8 µM)	relative viability ([3]; first compound 2.53 µM)	relative viability ([3]; first compound 8 µM)
LC-2-ad	0.4	0.389	0.48	0.505	0.318	0.242	0.307	0.218	0.47	0.454	0.493	0.378	0.348	0.567	0.488	0.544	0.483
LCLC-97TM1	0.395	0.324	0.345	0.347	0.623		0.67	0.447	0.338			0.288	0.221	0.394	0.364	0.336	0.346
LCLC-103H	0.401	0.392	0.449	0.427					1.09	1.03	1.06	1.13	1.02	0.678	0.74	0.537	0.582
LK-2	0.393	0.458	0.504	0.428	0.873	0.928	0.808	0.915	0.218	0.225	0.232	0.249	0.215	0.2	0.159	0.176	0.182
LOU-NH91	0.473	0.517	0.512	0.509		0.577	0.697	0.705	0.86	0.752	0.767	0.695	0.694	0.317	0.318	0.307	0.315
LU99A	0.517	0.674	0.728	0.509	0.836	0.723	0.858	0.582	0.546	0.636	0.648	0.484	0.478	0.224	0.227	0.246	0.199
LXF-289	0.209	0.234	0.195	0.227	0.714	0.7	0.673	0.618	0.838	0.703	0.821	0.76	0.799	0.477	0.378	0.547	0.395
NCI-H23	0.622		0.79	0.71	0.808		0.71	0.722	0.504	0.494	0.442	0.341	0.206	0.222	0.199	0.229	0.189
NCI-H322M	0.255	0.315	0.268	0.29	1.17	1.11	1.11	1	0.877	0.957	0.841	0.868	0.71	0.815	0.796	0.726	0.648
NCI-H358	0.199	0.196	0.19	0.188					0.725	0.458	0.355	0.198	0.196	0.287	0.176	0.177	0.207
NCI-H441	0.566	0.492	0.664	0.493	0.536	0.654	0.544	0.472	0.648	0.761	0.496	0.335	0.401	0.295	0.32	0.245	0.282
NCI-H522	0.856	0.842	0.974	0.938										1.2	0.989	1.15	1.22
NCI-H650	0.496	0.436	0.419	0.445					0.786	0.662	0.596	0.551	0.375	0.77	0.685	0.703	0.793
NCI-H661	0.785	0.608		0.68					0.929	0.93	1.12	1.04	1.04	0.785	0.751	0.714	0.549
NCI-H1299					0.895	0.932	0.894	0.835	1.05	0.919	0.933	0.926	0.873				
NCI-H1395	0.448	0.405	0.401	0.427	1.17	0.859	1	1.13						0.431	0.725	0.678	0.82
NCI-H1563	0.465	0.48	0.55	0.452					0.877	0.998	0.893	1.07	0.917	0.488	0.52	0.519	0.532
NCI-H1623	0.522	0.492	0.498	0.441										0.465	0.52	0.486	0.433
NCI-H1703					0.9	0.987	0.783	0.71	1.15	0.643	0.548	0.38	0.597				
NCI-H1793	0.378	0.342	0.448	0.371	0.45	0.397	0.371	0.282						0.132	0.348	0.166	0.405
NCI-H2342	0.286	0.293	0.325	0.274										0.501	0.528	0.484	0.476
SW 900			0.642	0.542												0.175	0.175
